Data from the supplement of paper PMC8633005.

Assays:
Assay in all cases: drug sensitivity score (DSS) (DSS (unitless, 0-50 scale)); higher = more sensitive (stronger viability inhibition); extreme values may be limits of the assay
Conditions in all cases: 72 h; culture: 2D
Bowes = system: Bowes
Summary of the method: (§1)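 Viability was measured by CellTiter-Glo luminescence after 72 h at 37 °C in 384-well plates holding a 527-compound oncology library, with patient-derived melanoma cultures (1000–1500 cells per well) and melanoma cell lines grown in 2D. Every compound was tested at five concentrations spanning a 10,000-fold range. The drug sensitivity score, a modified area under the curve, came from dose-response curves fitted with in-house Breeze software.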

FM-MEL-2 = system: FM-MEL-2
Summary of the method: as §1

FM-MEL-3 = system: FM-MEL-3
Summary of the method: as §1

FM-MEL-6 = system: FM-MEL-6
Summary of the method: as §1

SK-MEL-28 = system: SK-MEL-28
Summary of the method: as §1

SK-MEL-2 = system: SK-MEL-2
Summary of the method: as §1

WM165 = system: WM165
Summary of the method: as §1

WM852 = system: WM852
Summary of the method: as §1

| Structure (SMILES) | drug sensitivity score (Bowes) | drug sensitivity score (FM-MEL-2) | drug sensitivity score (FM-MEL-3) | drug sensitivity score (FM-MEL-6) | drug sensitivity score (SK-MEL-28) | drug sensitivity score (SK-MEL-2) | drug sensitivity score (WM165) | drug sensitivity score (WM852) |
| --- | --- | --- | --- | --- | --- | --- | --- | --- |
| CO[C@@H](C(=O)N1Cc2[nH]nc(NC(=O)c3ccc(N4CCN(C)CC4)cc3)c2C1)c1ccccc1 [Danusertib] | 10.4 | 0 | 1.5 | 2.9 | 5.1 | 1 | 14.5 | 3.2 |
| CC(C)C[C@H](NC(=O)CNC(=O)c1cc(Cl)ccc1Cl)B(O)O [Ixazomib] | 8.8 | 4.9 | 13.6 | 17 | 9.6 | 11.2 | 10.4 | 0.9 |
| Cc1c(N)nc([C@H](CC(N)=O)NC[C@H](N)C(N)=O)nc1C(=O)N[C@H](C(=O)N[C@H](C)[C@@H](O)[C@H](C)C(=O)N[C@H](C(=O)NCCc1nc(-c2nc(C(=O)NCCC[S+](C)C)cs2)cs1)[C@@H](C)O)[C@@H](OC1OC(CO)C(O)C(O)C1OC1OC(CO)C(O)C(OC(N)=O)C1O)c1cnc[nH]1 (stereo not given in full) [Bleomycin] | 0.9 | 2.4 | 5 | 2.1 | 1.8 | 0 | 9.4 | 0 |
| CCN(CC)Cc1ccc2cc(COC(=O)Nc3ccc(C(=O)NO)cc3)ccc2c1 [Givinostat] | 2 | 4.3 | 5.2 | 5.8 | 4.9 | 5.6 | 6.6 | 2.2 |
| CO[C@H]1C[C@@H]2CC[C@@H](C)[C@@](O)(O2)C(=O)C(=O)N2CCCC[C@H]2C(=O)O[C@H]([C@H](C)C[C@@H]2CC[C@@H](OCCO)[C@H](OC)C2)CC(=O)[C@H](C)/C=C(\C)[C@@H](O)[C@@H](OC)C(=O)[C@H](C)C[C@H](C)/C=C/C=C/C=C/1C [Everolimus] | 0 | 2.2 | 4.7 | 3.6 | 3 | 0 | 4.9 | 0 |
| Nc1cc(F)ccc1NC(=O)/C=C/c1cnn(C/C=C/c2ccccc2)c1 [RGFP966] | 1.6 | 0 | 0.5 | 1.9 | 0 | 0 | 0 | 0 |
| CC1(C)OCCn2c1nc1c(N3CCOCC3)nc(-c3cnc(N)nc3)nc12 [GDC-0084] | 9.4 | 9.6 | 8.4 | 7.8 | 7.7 | 8.1 | 8.4 | 7.7 |
| COc1cccc(-c2ccc(NC(=O)C3=C(C(=O)O)CCC3)c(F)c2)c1 [Vidofludimus] | 0.4 | 0 | 0.3 | 0 | 0 | 0 | 1.3 | 0 |
| O=C(Nc1ccc(OC(F)(F)Cl)cc1)c1cnc(N2CC[C@@H](O)C2)c(-c2cc[nH]n2)c1 [Asciminib] | 0 | 0.6 | 0.1 | 0 | 0 | 0 | 0 | 0.3 |
| FC(F)(F)c1ccc(/C=C/c2nc(COc3ccc(CCCCn4ccnn4)cc3)co2)cc1 [Mubritinib] | 6.4 | 0 | 9.3 | 0 | 0 | 0 | 2.3 | 15.5 |
